This passage reports ED50 results from patent publication US4203990A, “Anti-diarrheal 2-substituted quinuclidines” (G. D. Searle & Co., priority 1979, dated 1980).

The subject of experiment [1] is gastrointestinal propulsive motility. Nature of the experiment: Mouse Cecal Test (charcoal in cecum, inhibition of gastrointestinal propulsive motility). Conditions: oral/IG, test compound 30 min before charcoal, cecum examined 3.5 h after charcoal, logistic method of Berkson. Type of experiment: in vivo, male Charles River mice. From the text:
The present compounds are potent anti-diarrheal agents as evidenced by their ability to inhibit gastrointestinal propulsive motility as set forth in the following tests:
The method used for this assay is a modification of the techniques previously described by Macht and Barba-Gose, J. Amer. Pharm. Ass., 20, 558 (1931), and Janssen and Jageneau, J. Pharm. Pharmacol., 9, 381 (1957). Details are as follows:
A group of six, male Charles River mice weighing 20-25 g. which have been previously fasted for 24 hours are pretreated with the test compounds administered orally as a solution in water or suspended in 0.5% methyl cellulose. A constant volume of 10 ml./kg. is employed. Thirty minutes following administration of the test compounds, the animals are given a single oral dose of charcoal which consists of 0.2 ml. per mouse of 10% charcoal suspended in 1.0% methyl cellulose. Three and a half hours after charcoal administration, the animals are sacrificed and the cecum examined for the absence or presence of charcoal on an all-or-none basis.
The median effective dose (ED50) is then calculated for each compound using the logistic method of Berkson (1953).

In experiment [2] the test system is castor oil-induced diarrhea. Description: Castor Oil-Induced Diarrhea in the Rat. The format is in vivo, Charles River male rats. The note with it: po, intragastric, 1 h before castor oil (1.0 ml per rat), at 2 hours past castor oil, method of Berkson. The protocol: Adult Charles River male rats are fasted in community cages for 24 hours prior to the test, with free access to water. The test compound is then administered intragastrically (suspended on 0.5% methyl cellulose) one hour prior to the intragastric administration of a dose of 1.0 ml. castor oil per rat. The rats are then observed for the presence or absence of diarrhea at hourly intervals for up to 8 hours past the castor oil administration. Using the method of Berkson (1953), the median effective dose (ED50) values are calculated at each hourly interval for the test compound.
The median effective dose at 2 hours past the castor oil administration for the following representative compound of the present invention in the castor oil-induced diarrhea in the Rat test is: […]

Molecules are shown by their SMILES.

The term ED50 denotes the dose at which the effect has come halfway, by size or by number of responders. A high value points to weaker potency. The compound `Cl.c1ccc(C(CC2CC3CCN2CC3)(c2ccccc2)c2ccccn2)cc1` (stereo not shown) [2-[2,2-diphenyl-2-(2-pyridyl)ethyl]-1-azabicyclo[2.2.2]octane hydrochloride] showed an ED50 in experiment [1] of 18.1 ± 10.3 mg/kg.
In the case of `Cl.c1ccc(C(CC2CC3CCN2CC3)(c2ccccc2)c2ccccc2)cc1` (stereo not shown) [2-(2,2,2-triphenylethyl)-1-azabicyclo[2.2.2] octane hydrochloride], the values for the ED50 in experiment [1] and in experiment [2] were 0.9 ± 0.2 mg/kg and 0.2 ± 0.05 mg/kg, respectively.
In the case of `Cc1nnc(C(CC2CC3CCN2CC3)(c2ccccc2)c2ccccc2)o1.Cl` (stereo not shown) [2-[2-(5-methyl-1,3,4-oxadiazol-2-yl)-2,2-diphenylethyl]-1-azabicyclo[2.2.2]octane hydrochloride], the ED50 in experiment [1] is 4.4 ± 1.3 mg/kg.
